ChEMBL document CHEMBL1140610, “Matrix metalloproteinases (MMPs): chemical-biological functions and (Q)SARs” (Bioorg Med Chem, 2007)

Each molecule was assayed against T1, Interstitial collagenase (Homo sapiens, UniProt P03956). Conditions: read-out: log(1/IC50) (converted).
T1 sequence (P03956 whole entry): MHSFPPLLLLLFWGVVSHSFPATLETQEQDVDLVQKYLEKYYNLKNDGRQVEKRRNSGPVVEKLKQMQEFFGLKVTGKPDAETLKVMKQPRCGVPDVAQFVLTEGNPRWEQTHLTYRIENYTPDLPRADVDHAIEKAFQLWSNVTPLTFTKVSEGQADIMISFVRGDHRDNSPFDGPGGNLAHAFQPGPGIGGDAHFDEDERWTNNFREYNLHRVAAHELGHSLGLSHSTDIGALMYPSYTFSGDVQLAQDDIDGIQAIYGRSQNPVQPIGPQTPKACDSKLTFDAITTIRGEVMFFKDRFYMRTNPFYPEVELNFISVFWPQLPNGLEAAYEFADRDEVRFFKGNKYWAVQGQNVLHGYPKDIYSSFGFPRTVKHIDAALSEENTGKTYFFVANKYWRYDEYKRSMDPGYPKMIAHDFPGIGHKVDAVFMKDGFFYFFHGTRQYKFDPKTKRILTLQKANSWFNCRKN
With `CC(N)P(=O)(O)CC(Cc1ccccc1)C(=O)NC(Cc1c[nH]c2ccccc12)C(N)=O` (centres undefined) the IC50 was 0.251 µM.
Molecule `C[C@@]1(O)CCCN(S(=O)(=O)c2ccc(OCc3ccccc3F)cc2)C1C(=O)NO` (some centres undefined) has an IC50 of 0.182 µM.
Work on `CC(N)P(=O)(O)CC(CSCc1ccccc1)C(=O)NC(Cc1c[nH]c2ccccc12)C(N)=O` (centres undefined) yielded an IC50 of 0.0141 µM.
`CNC(=O)[C@@H](NC(=O)C(CC(C)C)CP(=O)(O)Cc1ccc(Cc2ccccc2)cc1)C(C)(C)C` (some centres undefined) was tested, and the IC50 was 0.0603 µM.
For `Cc1c(F)cccc1COc1ccc(S(=O)(=O)N2CCC[C@@](C)(O)C2C(=O)NO)cc1` (some centres undefined), the IC50 was 1.29 µM.
`CNC(=O)[C@@H](NC(=O)C(CCC(F)(F)F)CP(=O)(O)Cc1ccc(Cc2ccccc2)cc1)C(C)(C)C` (some centres undefined) gave an IC50 of 0.0447 µM.
With `CC(N)P(=O)(O)CC(COCc1ccccc1)C(=O)NC(Cc1c[nH]c2ccccc12)C(N)=O` (centres undefined) the IC50 was 0.251 µM.
Work on `C[C@@]1(O)CCCN(S(=O)(=O)c2ccc(OCc3ccc(F)cc3Cl)cc2)C1C(=O)NO` (some centres undefined) yielded an IC50 of 0.309 µM.
With `CNC(=O)[C@@H](Cc1ccc(OC)cc1)NC(=O)C(CC(C)C)CP(=O)(O)Cc1ccccc1` (some centres undefined) the IC50 was 15.1 µM.
In the case of `CNC(=O)[C@@H](NC(=O)C(CCc1ccccc1)CP(=O)(O)Cc1ccc(Cc2ccccc2)cc1)C(C)(C)C` (some centres undefined), the IC50 is reported as 0.692 µM.
`C[C@@]1(O)CCCN(S(=O)(=O)c2ccc(OC[n+]3ccncc3)cc2)C1C(=O)NO` (some centres undefined) gave an IC50 of 1.58 µM.
Molecule `CNC(=O)[C@@H](Cc1ccc(OC)cc1)NC(=O)C(CC(C)C)CP(=O)(O)Cc1ccc(-c2ccccc2)cc1` (some centres undefined) has an IC50 of 2.19 µM.
`CNC(=O)[C@@H](Cc1ccc(OC)cc1)NC(=O)C(CC(C)C)CP(=O)(O)Cc1ccc(Oc2ccccc2)cc1` (some centres undefined) was tested, and the IC50 was 2.82 µM.
`Cc1ncccc1COc1ccc(S(=O)(=O)N2CCC[C@@](C)(O)C2C(=O)NO)cc1` (some centres undefined) gave an IC50 of 1.58 µM.
`CNC(=O)[C@@H](Cc1ccc(OC)cc1)NC(=O)C(CC(C)C)CP(=O)(O)Cc1ccc(CC2CCCCC2)cc1` (some centres undefined) showed an IC50 of 1.91 µM.
`C[C@@]1(O)CCCN(S(=O)(=O)c2ccc(OCc3cncc4ccccc34)cc2)C1C(=O)NO` (some centres undefined) showed an IC50 of 7.76 µM.
In the case of `CNC(=O)[C@@H](NC(=O)C(CCC1CCCCC1)CP(=O)(O)Cc1ccc(Cc2ccccc2)cc1)C(C)(C)C` (some centres undefined), the IC50 is reported as 19.1 µM.
Work on `CNC(=O)[C@@H](NC(=O)C(CCC(C)C)CP(=O)(O)Cc1ccc(Cc2ccccc2)cc1)C(C)(C)C` (some centres undefined) yielded an IC50 of 3.47 µM.
Molecule `CNC(=O)[C@@H](NC(=O)C(CC1CCCCC1)CP(=O)(O)Cc1ccc(Cc2ccccc2)cc1)C(C)(C)C` (some centres undefined) has an IC50 of 1.82 µM.
In the case of `CC(N)P(=O)(O)CC(CCc1ccccc1)C(=O)NC(Cc1c[nH]c2ccccc12)C(N)=O` (centres undefined), the IC50 is reported as 0.0794 µM.
Work on `CC(N)P(=O)(O)CC(CCCc1ccccc1)C(=O)NC(Cc1c[nH]c2ccccc12)C(N)=O` (centres undefined) yielded an IC50 of 0.0309 µM.
For `CNC(=O)[C@@H](NC(=O)C(CC1CCC1)CP(=O)(O)Cc1ccc(Cc2ccccc2)cc1)C(C)(C)C` (some centres undefined), the IC50 was 0.178 µM.
Molecule `CNC(=O)[C@@H](Cc1ccc(OC)cc1)NC(=O)C(CC(C)C)CP(=O)(O)Cc1ccccc1-c1ccccc1` (some centres undefined) has an IC50 of 11 µM.
Work on `COc1ccccc1COc1ccc(S(=O)(=O)N2CCC[C@@](C)(O)C2C(=O)NO)cc1` (some centres undefined) yielded an IC50 of 2.57 µM.
`C[C@@]1(O)CCCN(S(=O)(=O)c2ccc(OCc3ccc(Cl)cc3F)cc2)C1C(=O)NO` (some centres undefined) showed an IC50 of 0.12 µM.
`CNC(=O)[C@@H](Cc1ccc(OC)cc1)NC(=O)C(CC(C)C)CP(=O)(O)Cc1cccc(CCc2ccccc2)c1` (some centres undefined) was tested, and the IC50 was 7.41 µM.
In the case of `C[C@@]1(O)CCCN(S(=O)(=O)c2ccc(OCc3ccncc3)cc2)C1C(=O)NO` (some centres undefined), the IC50 is reported as 0.191 µM.
`C[C@@]1(O)CCCN(S(=O)(=O)c2ccc(OCc3ccc(F)cc3)cc2)C1C(=O)NO` (some centres undefined) gave an IC50 of 0.417 µM.
Work on `CNC(=O)[C@@H](Cc1ccc(OC)cc1)NC(=O)C(CC(C)C)CP(=O)(O)Cc1cccc(-c2ccccc2)c1` (some centres undefined) yielded an IC50 of 5.13 µM.
Work on `O=C(CN(Cc1ccc([N+](=O)[O-])cc1)S(=O)(=O)c1c(F)c(F)c(F)c(F)c1F)NO` yielded an IC50 of 0.00302 µM.
In the case of `C[C@@]1(O)CCCN(S(=O)(=O)c2ccc(OCc3ccccc3C#N)cc2)C1C(=O)NO` (some centres undefined), the IC50 is reported as 2.69 µM.
With `CNC(=O)[C@@H](Cc1ccc(OC)cc1)NC(=O)C(CC(C)C)CP(=O)(O)Cc1ccc(Cc2ccccc2)cc1` (some centres undefined) the IC50 was 0.269 µM.
With `Cc1ccccc1COc1ccc(S(=O)(=O)N2CCC[C@@](C)(O)C2C(=O)NO)cc1` (some centres undefined) the IC50 was 0.309 µM.
`C[C@@]1(O)CCCN(S(=O)(=O)c2ccc(OCc3cccc(Cl)c3)cc2)C1C(=O)NO` (some centres undefined) gave an IC50 of 0.851 µM.
